Test results published in PubChem BioAssay (NCI).
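48-hour exposure; five concentrations; linearly interpolated endpoints. GI50: concentration for 50% inhibition of growth. TGI: concentration producing complete growth inhibition.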

How the values were obtained:
Experiment in all cases: NCI anticancer screen, dose series, 48 h
HS 578T breast = test system: HS 578T breast
IGROV1 ovarian = test system: IGROV1 ovarian
EKVX NSCLC = test system: EKVX NSCLC
HL-60(TB) leukemia = test system: HL-60(TB) leukemia
SK-MEL-28 melanoma = test system: SK-MEL-28 melanoma
NCI-H23 lung = test system: NCI-H23 lung
UO-31 renal = test system: UO-31 renal
OVCAR-4 ovarian = test system: OVCAR-4 ovarian
HCT-116 colon = test system: HCT-116 colon
MDA-MB-231 breast = test system: MDA-MB-231 breast
T-47D breast = test system: T-47D breast
CAKI-1 renal = test system: CAKI-1 renal
786-0 renal = test system: 786-0 renal
MOLT-4 leukemia = test system: MOLT-4 leukemia
DU-145 prostate = test system: DU-145 prostate
K-562 leukemia = test system: K-562 leukemia
PC-3 prostate = test system: PC-3 prostate
LOX IMVI melanoma = test system: LOX IMVI melanoma
SK-MEL-5 melanoma = test system: SK-MEL-5 melanoma
SN12C renal = test system: SN12C renal
SF-539 CNS = test system: SF-539 CNS
SF-268 CNS = test system: SF-268 CNS
NCI-H522 lung = test system: NCI-H522 lung
A498 renal = test system: A498 renal
SNB-75 CNS = test system: SNB-75 CNS
MALME-3M melanoma = test system: MALME-3M melanoma
KM12 colon = test system: KM12 colon
ACHN renal = test system: ACHN renal

## CCOc1ccccc1C(=O)/C=C/c1cc2ccccc2[nH]c1=O
HS 578T breast
  GI50: 22.2 nM
  TGI: 93.3 nM
IGROV1 ovarian
  GI50: 56.4 nM
  TGI: 1860 nM
EKVX NSCLC
  GI50: 172 nM
  TGI: 1990 nM
HL-60(TB) leukemia
  GI50: 13 nM
  TGI: 59 nM
SK-MEL-28 melanoma
  GI50: 324 nM
  TGI: 2160 nM
NCI-H23 lung
  GI50: 72.9 nM
  TGI: 1770 nM
UO-31 renal
  GI50: 61.1 nM
  TGI: 1590 nM
OVCAR-4 ovarian
  GI50: 144 nM
  TGI: 6240 nM
HCT-116 colon
  GI50: < 22.9 nM
  TGI: 1170 nM
MDA-MB-231 breast
  GI50: 77.4 nM
  TGI: 2010 nM
T-47D breast
  GI50: 271 nM
  TGI: 19600 nM
CAKI-1 renal
  GI50: 25.8 nM
  TGI: 1490 nM
786-0 renal
  GI50: 39.9 nM
  TGI: 1330 nM
MOLT-4 leukemia
  GI50: 38.5 nM
  TGI: 4430 nM
DU-145 prostate
  GI50: 38 nM
  TGI: 905 nM
K-562 leukemia
  GI50: < 10 nM
  TGI: > 100000 nM
PC-3 prostate
  GI50: 41.3 nM
  TGI: 2760 nM
LOX IMVI melanoma
  GI50: 44.3 nM
  TGI: 1060 nM
SK-MEL-5 melanoma
  GI50: 43.1 nM
  TGI: 1310 nM
SN12C renal
  GI50: 96.1 nM
  TGI: 1630 nM
SF-539 CNS
  GI50: 29.4 nM
  TGI: 129 nM
SF-268 CNS
  GI50: 86 nM
  TGI: 1850 nM
NCI-H522 lung
  GI50: 30.8 nM
  TGI: 1830 nM
A498 renal
  GI50: 14.7 nM
  TGI: 81.3 nM
SNB-75 CNS
  GI50: 20.9 nM
  TGI: 76.6 nM
MALME-3M melanoma
  GI50: 23.8 nM
  TGI: 1880 nM
KM12 colon
  GI50: 35.5 nM
  TGI: 570 nM
ACHN renal
  GI50: 60.3 nM
  TGI: 1730 nM
